What was measured:
bees [1] = experiment: Example 3: effect of xanthohumol formulation itself on bee colonies (vigour, hygienic instinct, toxicity); format: in vivo
Method: Group III—bee colonies treated with the protective formulation in the form of spray without poisoning with Actara. 20 mg of xanthohumol were dissolved in 1 ml of ethyl alcohol and subsequently added to 0.5 l of sugar syrup in water in a ratio of 1:1, and four hives were sprayed with use of a spraying machine so that one bee colony received a dose of about 5 mg of xanthohumol. Actara was not used in this experiment.
1 g of xanthohumol dissolved in 10 ml of ethyl alcohol which was then added to 0.125 l of sugar syrup in water in a ratio 1:1 and it was sprayed on 1 hive so that one bee colony received a dose of about 1000 mg of xanthohumol (1 hive). After 24 hours bee colony was poisoned by a contact route. Poisoning was carried out in the form of small-molecule spray which was applied on each frame with bees.

bees [2] = experiment: Example 1: viability of bees in experimental queen cages with high concentration of imidaclopride; format: in vivo; conditions: 10 mg/l xanthohumol in syrup for three days, then imidaclopride (Kohinor 200 SL) 375 μl/l; controls died in 100%
Method: The experiment was carried out in Lublin, Poland in an apiary containing 250 bee colonies.
The influence of xanthohumol concentration in sugar syrup on the viability of bees was studied on samples of 100 bees placed in a special cage for studies, (FIG. 1). The bees were taking a protective formulation for three days in the form of xanthohumol dissolved in standard sugar syrup in three concentrations: 5, 10 and 20 mg of xanthohumol/1, respectively. Each concentration was studied in three independent small hives. After three days of taking the protective formulation, the bees received imidaclopride (in Kohinor 200 SL) in a concentration of 375 μl/l in a […] (similar doses are used for controlling of insects in vegetable cultivations). As a control group, three small hives of 100 bees each were used, which were not fed with xanthohumol containing preparation. All xanthohumol concentrations and the control group were studied in thriplicate. Xanthohumol obtained by chromatographic method from hop post-extraction waste was used. The purity of the preparation was ˜99% (FIG. 3).

[3] = tested on: Nosema spp. (apis and cerenae); experiment: Counting of Nosema cells under a microscope in blended dead bees; format: in vivo
Source text: (§1) (apis and cerenae). It was found on the basis of studies (initial results) that the amount of spores observed under a microscope after the use of Xn decreased by 60% on average in relation to control. Observation under a microscope of blended dead bees was related to counting of Nosema cells in the suspension of distilled water. […] The formulation was also investigated in several bee colonies in apiary infected with Nosemosis.

bees [4] = experiment: Example 3: viability of bee colonies poisoned with thiamethoxam (Actara) after xanthohumol spray; format: in vivo
Method: The experiment was carried out in Loma-Zawady Przedmieście, Poland in an apiary consisting of 25 colonies based in hives of Dadant type (frame 435×300 mm). The hives had wire-net, detachable bottom in the form of a diagnostic tray. The nest body of the hives consisted of 10 frames.
Bee colonies in the form of separated colonies were purchased from local producer. Each separated colony consisted of 3 frames of brood and frames with supply of bee bread and honey. All frames were settled in “black” by bees.
The experiments were carried out on 25 swarms of bees divided into VI groups. Groups I to V, consisted of 4 hives, each.
In groups I-V, xanthohumol at the concentration of 40 mg/l was used as a protective formulation. Actara at the concentration of 0.4 g/l was used for poisoning of insects (the concentration used in spraying of beetle).
Group IV—bee colonies treated with the protective preparation in the form of spray. Poisoning with Actara by alimentary route. 20 mg of xanthohumol were dissolved in 1 ml of ethyl alcohol and subsequently added to 0.5 l of sugar syrup in water in a ration 1:1 and four hives were sprayed with spraying machine so that one bee colony received a dose of 5 mg of xanthohumol. Poisoning with Actara given with 1:1 syrup (1 kg of sugar+1 l of water).
Group V—bee colonies treated with the protective preparation in the form of spray. Poisoning with Actara by contact route. 20 mg of xanthohumol were dissolved in 1 ml of ethyl alcohol and subsequently added to 0.5 l of sugar syrup in water in a ratio 1:1 and four hives were sprayed with the spraying machine so that one bee colony received a dose of about 5 mg of xanthohumol. Poisoning was carried out in the form of small-molecule spraying which was used for each frame with bees.
In this group, a formulation of different xanthohumol concentrations was used, and Actara (thiametoxam 25%) for poisoning of bees, at a dose of 0.2 g/l (concentration used by fruit farmers) was used. The control group were bees subjected only to spraying procedure with Actara.
Group VI a)—bees were protected with the formulation of xanthohumol concentration of 0.08 mg/l.
0.01 mg of xanthohumol was dissolved in 1 ml of ethyl alcohol and subsequently added to 0.125 l of sugar syrup in water in a ratio 1:1 and 1 hive was sprayed so that one a bee colony received a dose of about 0.01 mg of xanthohumol. After 24 hours, the bee colony was poisoned by a contact route. The poisoning was carried out in the form of small-molecule spraying which was used for each frame with bees.
Group VI b)—the bees were protected with the preparation of xanthohumol in concentration 1.6 mg/l.
0.2 mg of xanthohumol was dissolved in 1 ml of ethyl alcohol and subsequently added to 0.125 l of sugar syrup in water in a ratio 1:1 and 1 hive was sprayed so that one bee colony received a dose of about 0.2 mg of xanthohumol. After 24 hours, the bee colony was poisoned by the contact route. Poisoning was carried out in the form of small-molecule spraying which was applied on each frame with the bees.
Group VI c)—the bees were protected with a formulation of xanthohumol in concentration 16 mg/l.
2 mg of xanthohumol dissolved in 1 ml of ethyl alcohol which was added to 0.125 l of sugar syrup in water in a ration of 1:1 in duplicate and it was sprayed on 2 hives so that one bee colony received a dose of about 2 mg of xanthohumol. After 24 hours, the bee colonies were poisoned by the contact route. The poisoning was carried out if the form of a small-molecule spray which was applied on each frame with bees.
Group VI d)—the bees were protected with a preparation of xanthohumol concentration 8 g/1.
1 g of xanthohumol dissolved in 10 ml of ethyl alcohol which was then added to 0.125 l of sugar syrup in water in a ratio 1:1 and it was sprayed on 1 hive so that one bee colony received a dose of about 1000 mg of xanthohumol (1 hive). After 24 hours bee colony was poisoned by a contact route. […]

bees [5] = experiment: Stocking of a hive contaminated with a pesticide with a protected colony; format: in vivo; conditions: xanthohumol in syrup 2 g/l by spray; unprotected colony collapsed
Source text: Furthermore, it was found on the basis of the studies with the use of the formulation according to the invention, that there is a possibility of rehabilitating the protected bees in these regions which were contaminated by pesticides, where it has not been possible so far. In the hive where a control bee colony unprotected with the preparation was stocked with new unprotected colony, it collapsed within a short time. A hive contaminated with a pesticide is poisonous for bees even after several weeks.

[6] = tested on: virus of sacbrood disease and mycosis and Nosemosis; experiment: Other studies in Poland: colonies with sacbrood disease, mycosis and Nosemosis; format: in vivo, bees; conditions: 5 mg per one bee colony
Method: The studies prowed that the formulation containing xanthohumol (at a dose of 5 mg per one bee colony) may be used also for the treatment of the virus of sacbrood disease and mycosis and Nosemosis. […] The increased hygienic instinct was shown by studies carried out on bee colonies by a dozen of beekeepers in Poland.

Nosema spp. = experiment: Spraying of bee colonies in apiary infected with Nosemosis; format: in vivo; conditions: several days after spraying with formulation containing xanthohumol
Source text: as §1

[7] = cited from earlier work
[8] = tested on: focal ischaemia caused by MCAO in rats; conditions: cited from earlier work
bees [9] = experiment: Example 2: viability and behaviour of bees in apiary hives with low concentration of imidaclopride spray; format: in vivo
Method: Similar studies as described in example 1 were carried out in three bee hives containing ˜40,000 bees. Frames with bees (FIG. 4) were sprayed with imidaclopride dissolved in water at a concentration of 125 μl/l (microlitres per litre). It is a half of imidaclopride concentration in Kohinor 200 SL used in cultivation of vegetables in soil. The purpose of the study was to investigate low doses of imidaclopride to which mainly are exposed the bees collecting nectar during agrotechnological procedures.
The bees were studied in two groups. […] The studied group were bees which were given protective xanthohumol preparation in […] (milligram per litre) syrup for one week and then treated with imidaclopride spray at the above mentioned concentration (FIGS. 6A, 6B and 6C).

For `COc1cc(O)c(CC=C(C)C)c(O)c1C(=O)/C=C/c1ccc(O)cc1` [xanthohumol], which “behaviour and hygienic instinct of bee colony” value (bees [1]; Group III: spray, xanthohumol 40 g/l, about 5 mg per colony, no Actara) is on record?
The value was “improved the behaviour of bee colony and significantly influenced hygienic instinct of a bee”.

And the “Varroa destructor mites on the diagnostic tray” value (bees [1]; Group III: spray, xanthohumol 40 g/l, no Actara, not observed in control hives)?
Its value is “Dead mites Varroa destructor were also observed”.

What about the “symptoms increasing the vigour” value (bees [1]; Group VI a: 0.01 mg xanthohumol per colony) of the same compound?
Its value is “no symptoms increasing the vigour”.

And the “toxic effects of xanthohumol preparation on bees” value (bees [1]; Group VI d: 1 gram per hive (8 g/l), inspected 24 hours after use, before poisoning)?
The value was “did not cause any toxic effects”.

What about the “movement of bees at the beehive entrance” value (bees [1]; all studied concentrations of xanthohumol, compared to control hives) of the same compound?
The value was “increased movement of bees was observed at the beehive entrance”.

What about the “brooding of bee mothers compared with the control” value (bees [1]; first half of August, hives protected with the preparation) of the same compound?
Its value is “significant increase”.

What about the viability of bees (bees [2]) of the same compound?
The viability of bees was about 45%.

And the “decrease of amount of Nosema spores observed under a microscope in relation to control” value ([3]; after the use of Xn, on average, initial results)?
The value was 60%.

And the “number of Nosema pieces in suspension of blended dead bees” value ([3]; after using the formulation for 1 week, bees without Xn 30±3)?
The value was 8±2 pieces.

And the losses of bees (bees [4]; Group IV: xanthohumol 40 mg/l spray, Actara 0.4 g/l alimentary route after 24 hours)?
Its losses of bees is 35%.

What about the “memory / flights for pollen of surviving colonies” value (bees [4]; Group IV: xanthohumol 40 mg/l, Actara 0.4 g/l alimentary route) of the same compound?
The value was “did not lose memory”.

What about the losses of bees (bees [4]; Group V: xanthohumol 40 mg/l spray, Actara 0.4 g/l contact route after 24 hours) of the same compound?
Its losses of bees is 10%.

What about the “memory / flights for pollen of surviving colonies” value (bees [4]; Group V: xanthohumol 40 mg/l, Actara 0.4 g/l contact route) of the same compound?
The value was “did not lose memory and carried pollen”.

What about the “behaviour of the colony” value (bees [4]; Group VI a survivors, a week after post-poisoning spraying with xanthohumol 1.6 mg/l, dose of 2 mg) of the same compound?
Its value is “returned to normal”.

And the “time until bees restarted flights around the hive” value (bees [4]; Group VI a survivors, sprayed after poisoning with xanthohumol 1.6 mg/l, dose of 2 mg)?
Its value is 48 h.

And the “part of bee colony that did not survive” value (bees [4]; Group VI a: xanthohumol 0.08 mg/l (0.01 mg per colony), Actara 0.2 g/l contact after 24 hours)?
Its value is 60%.

And the “restart of flights for pollen by surviving bees” value (bees [4]; Group VI a: xanthohumol 0.08 mg/l, Actara 0.2 g/l)?
The value was “did not restart flights for pollen either after 24 hours or 48 hours”.

What about the “part of bee colony that did not survive” value (bees [4]; Group VI b: xanthohumol 1.6 mg/l (0.2 mf per colony), Actara 0.2 g/l contact) of the same compound?
The value was “about 40%”.

What about the “time until surviving bees restarted flights for pollen” value (bees [4]; Group VI b: xanthohumol 1.6 mg/l, Actara 0.2 g/l) of the same compound?
Its value is 48 h.

And the symptoms of poisoning (bees [4]; Group VI c: seven days from poisoning)?
Its symptoms of poisoning is “do not show any symptoms of poisoning”.

What about the survival of bees (bees [4]; Group VI c: xanthohumol 16 mg/l (2 mg per colony), Actara 0.2 g/l contact) of the same compound?
The survival of bees was “almost all bees survived”.

What about the “time until surviving bees restarted flights for pollen” value (bees [4]; Group VI c: xanthohumol 16 mg/l, Actara 0.2 g/l) of the same compound?
The value was 24 h.

And the symptoms of poisoning (bees [4]; Group VI d: after seven days)?
Its symptoms of poisoning is “did not show any symptoms of poisoning”.

What about the losses of bees (bees [4]; Group VI d: xanthohumol 8 g/l (1 g per colony), Actara 0.2 g/l) of the same compound?
The losses of bees was 10%.

And the bees survived (bees [4]; Group VI d: xanthohumol 8 g/l (1 g per colony), Actara 0.2 g/l contact after 24 hours)?
Its bees survived is 90%.

What about the “fate of protected colony put into pesticide-contaminated hive” value (bees [5]) of the same compound?
The value was “still lived and did not show symptoms of poisoning”.

And the “effect in colonies with mycosis and Nosemosis” value [6]?
Its value is “fast purification of the nest from dead insects occurred”.

And the “effect in colonies with sacbrood disease” value [6]?
The value was “the colony started to work”.

What about the “typical symptoms of Nosema spp. infection (soiling of frames and front wall of the hive with feces)” value (Nosema spp.) of the same compound?
The value was “disappeared”.

And the water solubility [7]?
Its water solubility is “poor”.

And the “area of brain ischaemic necrosis” value [8]?
The value was “significantly decreased”.

What about the behaviour of bees (bees [9]; two weeks after the administration of imidaclopride) of the same compound?
Its behaviour of bees is “did not show any differences in behaviour compared to the healthy hives”.

What about the bees died (bees [9]; xanthohumol 10 mg/ml (milligram per litre) syrup for one week, then imidaclopride spray 125 μl/l) of the same compound?
The bees died was about 10%.

What about the “time from spraying until bees started to fly to the pasture and bring pollen” value (bees [9]; xanthohumol syrup one week, imidaclopride spray 125 μl/l) of the same compound?
The value was “Three”.
